{
  "source": "patent US20070083333A1",
  "about": "“Modeling of systemic inflammatory response to infection” (priority 2003, published 2007)",
  "key": {"[1]": {"test_system": "irradiated (490 rads) C3H/HeN mice with infected subcutaneous pouch", "experiment": "Immunocompromised mouse model of contained infection: ceftriaxone treatment, spleen CFU at death and survival", "type": "in vivo", "conditions": "Ceftriaxone 0.3 mg/mouse daily", "description": "In order to test therapies intended at controlling systemic inflammatory response rather than the infection, it is desirable to control the infection to avoid problems that can derive from a high bacterial load. To this end we controlled the infection by using antibiotics. In this experiment, a subcutaneous pouch was induced in C3H/HeN animals. […] At Day 6 after induction of the pouches, mice were infected with 4.5×10^6 CFU/mouse. As animals became sick (as detected by a ruffled fur), each animal was assigned to one of two different groups, i.e. a group to be treated with 0.3 mg/mouse of ceftriaxone and a group to stay untreated. […] Once an animal was assigned to the treated group, it received a daily injection of antibiotic until the animal succumbed to death. […] At death, spleens were removed from the animals, homogenized in PBS, and the CFU determined.\nThe bacterial counts in the spleens of treated animals are about 3 logs of magnitude lower than in the untreated animals. The conditions employed should therefore be useful for testing therapies to prevent the progression from sepsis to septic shock in the absence of overwhelming bacterial infection."}, "[2]": {"test_system": "irradiated C3H/HeN mice infected with E. coli strain Bort", "experiment": "VEGF receptor antagonists (Compounds I and II): survival, bacterial counts, time of euthanasia", "type": "in vivo, mouse", "conditions": "for Bacterial counts: blood bacterial count of individual animal bled at 40 hours after infection, 100 mg/Kg injected 16 hours after infection, FD given where no count; for Bacterial counts / Time of Death: 100 mg/kg; for Status: individual animal survival status code (1 or 0, not defined; 0 only at 168); for Time of Death: individual animal, time of death/euthanasia (hours after infection), 100 mg/Kg, ceftriaxone 50 ug/mouse at 40 hours", "method": "(§1) Mice were pouched six days and irradiated five days before infection. Eight- to 12-week-old C3H/HeN mice were anesthetized with isofluorane and wiped with alcohol in the area caudal to their ears. Pouches were created at this site by subcutaneous injection of 2-3 ml of air, followed by the subcutaneous injection of 0.2 ml of a 0.5% solution of croton oil in olive oil. Twenty-four hours later, mice were irradiated using a gamma irradiator. Five days after irradiation, animals were infected with E. coli strain Bort by direct injection of the bacterial suspension into the pouches. After infection, animals were treated as described for each individual experiment. Animals were checked daily for signs of pain and distress, including diarrhea, lethargy, ruffled fur, lack of appetite, and poor body condition. Animals were euthanized when they became very lethargic and unable to move when touched. It was previously determined that when mice reach such conditions they will die within 6-8 hours.\nUsing the procedure described above, 76 mice were pouched, irradiated (495 rads) and infected (0.2 ml of 0.1 OD 600).\n(II) (see WO 98/13354 and WO 00/132651). At 40 hours after infection, animals were bled and injected with the same solutions to which ceftriaxone was added to yield a solution containing 50 ug/mouse. Animals were injected with the solutions (no ceftriaxone) for 2 more days. Blood was used for BC and plasma. Two aliquots of 20 ul and an extra aliquot were prepared and stored at −80."}, "[3]": {"test_system": "irradiated C3H/HeN mice infected with E. coli strain Bort", "experiment": "Ethyl pyruvate plus ceftriaxone, survival in immunocompromised infected mouse model", "type": "in vivo", "conditions": "for Bacterial counts / Status / Status.dead / Time death: one animal per row, listed as EP; for Status: 1 = dead, 0 = alive", "method": "as §1, with “touched.” for “touched. It was previously determined that when mice reach such conditions they will die within 6-8 hours.”\nMice were pouched and irradiadiated as described above. The mice were assigned to four different groups: (1) ten mice were untreated (control mice); (2) nineteen mice were treated with 0.1 mg/mouse of ceftriaxone (CEF) once every 24 hours […] (saline control mice); (3) twenty mice were treated with 0.1 mg/mouse ceftriaxone and 35 mg/ml ethyl pyruvate once every 24 hours for four days (EP mice); and (4) ten mice were treated as for group (3) and received an additional injection of 35 mg/ml of EP at 30 and 54 hour timepoints (EP 2x mice)."}},
  "note": "“And” between values parts separate entries of the source, which are not always exact repeats. Equal values may be shown once.",
  "data": [
    {"smiles": "CO/N=C(\\C(=O)N[C@@H]1C(=O)N2C(C(=O)O)=C(CSc3nc(=O)c(=O)[nH]n3C)CS[C@H]12)c1csc(N)n1", "note": "[Ceftriaxone, ceftriaxone]", "values": [
      {"measurement": "CFU/spleen, Average", "setting": "[1]; average of treated animals", "result": "7.01E+05", "unit": "CFU/spleen"},
      {"measurement": "CFU/spleen", "setting": "[1]; spleens removed at death, single animals", "result": "2.60E+04 CFU/spleen and 3.00E+03 CFU/spleen and 8.00E+03 CFU/spleen and 8.00E+05 CFU/spleen (2×) and 1.80E+04 CFU/spleen and 6.00E+02 CFU/spleen and 1.20E+04 CFU/spleen and 2.00E+03 CFU/spleen and 4.00E+04 CFU/spleen and 6.00E+06 CFU/spleen"}
    ]},
    {"smiles": "COc1cc2c(Nc3ccc(Br)cc3F)ncnc2cc1OCC1CCN(C)CC1", "note": "[Compound II]", "values": [
      {"measurement": "Bacterial counts", "setting": "[2]", "result": "1.0E+09 and 1.0E+07 and 9.0E+06 and 3.0E+06 and 2.0E+06 (3×) and 5.0E+05 and 3.0E+05 (2×) and 5.0E+04 and 3.0E+04 and 1.6E+04 and 2.0E+03 and 1.0E+02 (2×) and <100 (9×)"},
      {"measurement": "Status", "setting": "[2]", "result": "1 (23×) and 0 (4×)"},
      {"measurement": "Time of Death", "setting": "[2]", "result": "40 (2×) and 46 (4×) and 48 (7×) and 64 (4×) and 160 (3×) and 112 (3×) and 168 (4×)"}
    ]},
    {"smiles": "CC(C)(N)c1ccc(-c2nc(Nc3ccc(CCN4CCOCC4)cc3)ncc2C#N)cc1", "note": "[Compound I]", "values": [
      {"measurement": "Bacterial counts", "setting": "[2]", "result": "1.3E+07 and 4.0E+06 and 3.0E+06 and 2.0E+06 and 1.0E+06 and 3.0E+05 (3×) and 2.0E+05 (2×) and 3.0E+04 and 1.7E+03 and 1.0E+03 and 1.0E+02 (5×) and <100 (7×)"},
      {"measurement": "Status", "setting": "[2]", "result": "1 (27×) and 0"},
      {"measurement": "Time of Death", "setting": "[2]", "result": "40 (3×) and 46 (5×) and 48 (4×) and 64 and 88 and 94 and 112 (8×) and 160 and 96 (3×) and 168"}
    ]},
    {"smiles": "CCOC(=O)C(C)=O", "note": "[ethyl pyruvate]", "values": [
      {"measurement": "survival relative to nontreated or CEF-treated controls", "setting": "[3]; 35 mg/ml ethyl pyruvate with 0.1 mg/mouse ceftriaxone, every 24 hours for four days (EP) or with extra doses at 30 and 54 h (EP 2x)", "result": "significant survival advantage"},
      {"measurement": "Bacterial counts", "setting": "[3]; Group 3 (EP mice): 0.1 mg/mouse ceftriaxone and 35 mg/ml ethyl pyruvate once every 24 hours for four days", "result": "1.0E+04 and 3.0E+04 and 1.2E+05 and 2.0E+05 (3×) and 3.0E+05 (2×) and 1.3E+04 and 2.5E+04 and 3.5E+04 and 6.5E+04 and 7.6E+04 and 8.0E+04 and 1.2E+04 and 2.0E+03 and 1.6E+03 (2×) and 1.6E+04 and 4.0E+04"},
      {"measurement": "Status", "setting": "[3]; Group 3 (EP mice)", "result": "1 (19×) and 0"},
      {"measurement": "Status.dead", "setting": "[3]; Group 3 (EP mice)", "result": "DEAD (19×) and ALIVE"},
      {"measurement": "Time death", "setting": "[3]; Group 3 (EP mice)", "result": "48 (6×) and 54 (8×) and 56 and 78 and 102 and 168 and 174 (2×)"},
      {"measurement": "Bacterial counts", "setting": "[3]; Group 4 (EP 2x mice): as group 3 plus additional 35 mg/ml EP at 30 and 54 hour timepoints", "result": "2.0E+05 and 5.0E+04 (2×) and 3.0E+04 (2×) and 1.0E+04 and 1.7E+03 and 0.0E+00 and 1.0E+03 and 2.4E+03"},
      {"measurement": "Status", "setting": "[3]; Group 4 (EP 2x mice)", "result": "1 (7×) and 0 (3×)"},
      {"measurement": "Status.dead", "setting": "[3]; Group 4 (EP 2x mice)", "result": "DEAD (7×) and ALIVE (3×)"},
      {"measurement": "Time death", "setting": "[3]; Group 4 (EP 2x mice)", "result": "48 and 54 and 62 and 72 and 96 and 168 (2×) and 174 (3×)"}
    ]}
  ]
}
